# Target: T1, recombinant human KLK5 (Homo sapiens, UniProt Q9Y337)
# T1 construct: purchased Novoprotein or R&D Systems C415 or 1108-SE
# T1 sequence (Q9Y337 23-293): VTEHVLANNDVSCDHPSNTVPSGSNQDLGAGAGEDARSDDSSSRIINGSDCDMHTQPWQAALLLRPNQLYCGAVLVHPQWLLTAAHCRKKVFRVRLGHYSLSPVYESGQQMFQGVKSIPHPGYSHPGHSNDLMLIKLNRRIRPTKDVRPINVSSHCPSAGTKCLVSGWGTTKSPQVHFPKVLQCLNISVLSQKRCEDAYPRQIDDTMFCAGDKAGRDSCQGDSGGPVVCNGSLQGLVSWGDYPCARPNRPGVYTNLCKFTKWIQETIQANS
# Experiment: Kallikrein (KLK) 5 enzymatic assay (Boc-VPR-AMC fluorogenic substrate)
# Type: biochemical
# Conditions: recombinant human KLK5 0.1 μg/well, Boc-VPR-AMC 100 μM, pH 7.5, room temperature, 1% DMSO; tested a minimum of three times
# Summary of the method: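 Recombinant human KLK5 (0.1 μg/well) was preincubated with compound at room temperature in 0.1 M NaH2PO4, pH 7.5, 1% DMSO, then started with 100 μM Boc-VPR-AMC. The rate was followed at 380/460 nm, and IC50 came from percent inhibition relative to enzyme alone, with at least three runs.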
row,Structure (SMILES),IC50
1,"CC(C)(C)OC(=O)N1CC(Cn2nc3ccc(-c4ccc5ccnc(N)c5c4)cc3c2COc2ccccc2CC(=O)O)C1 [Compound 141b, 2-(2-((5-(1-aminoisoquinolin-7-yl)-2-((1-(tert-butoxycarbonyl)azetidin-3-yl)methyl)-2H-indazol-3-yl)methoxy)phenyl)acetic acid]",1000 to 10000 nM
2,"CC(C)n1nc(COc2ccccc2CC(=O)O)c2cc(-c3ccc4cnc(N)cc4c3)ccc21 [Compound 75c, 2-(2-((5-(3-aminoisoquinolin-6-yl)-1-isopropyl-1H-indazol-3-yl)methoxy)phenyl)acetic acid]",> 10000 nM
3,"Nc1nccc2ccc(-c3ccc4c(c3)c(COc3ccccc3CC(=O)O)nn4C3CC(F)(F)C3)cc12 [Compound 11e, 2-(2-((5-(1-aminoisoquinolin-7-yl)-1-(3,3-difluorocyclobutyl)-1H-indazol-3-yl)methoxy)phenyl)acetic acid]",< 1000 nM
4,"CCN1CCC2(CC1)C[C@@H](Oc1ccccc1CC(=O)O)c1cc(-c3cccc4c(N)nccc34)ccc12 [Compound 418c, (R)-2-(2-((5-(1-aminoisoquinolin-5-yl)-1′-ethyl-2,3-dihydrospiro[indene-1,4′-piperidin]-3-yl)oxy)phenyl)acetic acid]",< 1000 nM
5,"Nc1nccc2c(-c3ccc4nn([C@H]5CCN(CC(=O)O)C5)c(COc5ccccc5CC(=O)O)c4c3)cccc12 [Compound 114d, (S)-2-(2-((5-(1-aminoisoquinolin-5-yl)-2-(1-(carboxymethyl)pyrrolidin-3-yl)-2H-indazol-3-yl)methoxy)phenyl)acetic acid]",< 1000 nM
6,"CC(C)(C)OC(=O)N1CC(n2nc(COc3ccccc3CC(=O)O)c3cc(-c4ccc5ccnc(N)c5c4)ccc32)C1 [Compound 10e, 2-(2-((5-(1-aminoisoquinolin-7-yl)-1-(1-(tert-butoxycarbonyl)azetidin-3-yl)-1H-indazol-3-yl)methoxy)phenyl)acetic acid]",< 1000 nM
7,"CC(C)n1nc(COc2ccccc2CC(=O)O)c2cc(-c3ccc4c(N)nc(N)nc4c3)ccc21 [Compound 41c, 2-(2-((5-(2,4-diaminoquinazolin-7-yl)-1-isopropyl-1H-indazol-3-yl)methoxy)phenyl)acetic acid]",> 10000 nM
8,"COc1c(-c2ccc3c(c2)c(COc2ccccc2CC(=O)O)nn3C(C)C)ccnc1C(=N)N [Compound 81d, 2-(2-((5-(2-carbamimidoyl-3-methoxypyridin-4-yl)-1-isopropyl-1H-indazol-3-yl)methoxy)phenyl)acetic acid]",< 1000 nM
9,"Nc1nccc2ccc(-c3ccc4c(c3)c(COc3ccccc3CC(=O)O)nn4C3CC4(CCC4)C3)cc12 [Compound 112e, 2-(2-((5-(1-aminoisoquinolin-7-yl)-1-(spiro[3.3]heptan-2-yl)-1H-indazol-3-yl)methoxy)phenyl)acetic acid]",< 1000 nM
10,"CC(C)(C)OC(=O)N1CCC2(CC1)C[C@@H](Oc1ccccc1CC(=O)O)c1cc(-c3cccc4c(N)nccc34)ccc12 [Compound 394e, (R)-2-(2-((5-(1-aminoisoquinolin-5-yl)-1′-(tert-butoxycarbonyl)-2,3-dihydrospiro[indene-1,4′-piperidin]-3-yl)oxy)phenyl)acetic acid]",< 1000 nM
11,"Nc1nccc2ccc(-c3ccc4c(c3)c(COc3ccccc3CC(=O)O)nn4CC3CCOC3)cc12 (stereo not drawn) [Compound 89b, 2-(2-((5-(1-aminoisoquinolin-7-yl)-1-((tetrahydrofuran-3-yl)methyl)-1H-indazol-3-yl)methoxy)phenyl)acetic acid]",< 1000 nM
12,"CC(C)n1nc(COc2ccccc2CC(=O)O)c2cc(-c3ccc4c(c3)C(N)CO4)ccc21 (stereo not drawn) [Compound 76c, 2-(2-((5-(3-amino-2,3-dihydrobenzofuran-5-yl)-1-isopropyl-1H-indazol-3-yl)methoxy)phenyl)acetic acid]",> 10000 nM
13,"CC(C)(C)OC(=O)N1CC(Cn2nc(COc3ccccc3CC(=O)O)c3cc(-c4cccc5c(N)nccc45)ccc32)C1 [Compound 195b, 2-(2-((5-(1-aminoisoquinolin-5-yl)-1-((1-(tert-butoxycarbonyl)azetidin-3-yl)methyl)-1H-indazol-3-yl)methoxy)phenyl)acetic acid]",< 1000 nM

# The next lines start with the values.
row,IC50,Structure (SMILES)
1,1000 to 10000 nM,"CC(C)n1nc(COc2ccccc2CC(=O)O)c2cc(-c3cccc4c3OCC4N)ccc21 (stereo not drawn) [Compound 212c, 2-(2-((5-(3-amino-2,3-dihydrobenzofuran-7-yl)-1-isopropyl-1H-indazol-3-yl)methoxy)phenyl)acetic acid]"
2,1000 to 10000 nM,"Nc1nccc2ccc(-c3ccc4nn([C@H]5CCN(CC(=O)O)C5)c(COc5ccccc5CC(=O)O)c4c3)cc12 [Compound 116b, (S)-2-(2-((5-(1-aminoisoquinolin-7-yl)-2-(1-(carboxymethyl)pyrrolidin-3-yl)-2H-indazol-3-yl)methoxy)phenyl)acetic acid]"
3,> 10000 nM,"CC(C)n1nc(COc2ccccc2CC(=O)O)c2cc(-c3ccc4c(c3)C(N)CCO4)ccc21 (stereo not drawn) [Compound 214c, 2-(2-((5-(4-aminochroman-6-yl)-1-isopropyl-1H-indazol-3-yl)methoxy)phenyl)acetic acid]"
4,< 1000 nM,"Nc1nccc2ccc(-c3ccc4c(c3)c(COc3cccc(OC(F)(F)F)c3CC(=O)O)nn4C3CCOC3)cc12 (stereo not drawn) [Compound 288d, 2-(2-((5-(1-aminoisoquinolin-7-yl)-1-(tetrahydrofuran-3-yl)-1H-indazol-3-yl)methoxy)-6-(trifluoromethoxy)phenyl)acetic acid]"
5,< 1000 nM,"Nc1nccc2c(-c3ccc4c(c3)c(COc3ccccc3CC(=O)O)nn4C3CCCCC3)cccc12 [Compound 225b, 2-(2-((5-(1-aminoisoquinolin-5-yl)-1-cyclohexyl-1H-indazol-3-yl)methoxy)phenyl)acetic acid]"
6,< 1000 nM,"Cc1cccc(OCc2nn(C3CCC3)c3ccc(-c4ccc5ccnc(N)c5c4)cc23)c1CC(=O)O [Compound 161c, 2-(2-((5-(1-aminoisoquinolin-7-yl)-1-cyclobutyl-1H-indazol-3-yl)methoxy)-6-methylphenyl)acetic acid]"
7,1000 to 10000 nM,"COC(=O)N1CCC2(CC1)CC(Oc1c(C#N)cccc1CC(=O)O)c1cc(-c3ccc4ccnc(N)c4c3)ccc12 (stereo not drawn) [Compound 454c, 2-(2-((5-(1-aminoisoquinolin-7-yl)-1′-(methoxycarbonyl)-2,3-dihydrospiro[indene-1,4′-piperidin]-3-yl)oxy)-3-cyanophenyl)acetic acid]"
8,< 1000 nM,"CCC(=O)N1CCC2(CC1)CC(Oc1ccccc1CC(=O)O)c1cc(-c3ccc4ccnc(N)c4c3)ccc12 (stereo not drawn) [Compound 386b, 2-(2-((5-(1-aminoisoquinolin-7-yl)-1′-propionyl-2,3-dihydrospiro[indene-1,4′-piperidin]-3-yl)oxy)phenyl)acetic acid]"
9,< 1000 nM,"COc1ccc(OCc2nn(C3CCC3)c3ccc(-c4ccc5ccnc(N)c5c4)cc23)c(CC(=O)O)c1 [Compound 170c, 2-(2-((5-(1-aminoisoquinolin-7-yl)-1-cyclobutyl-1H-indazol-3-yl)methoxy)-5-methoxyphenyl)acetic acid]"
10,1000 to 10000 nM,"CCOC(=O)N1CC(n2nc3ccc(-c4ccc5ccnc(N)c5c4)cc3c2COc2ccccc2CC(=O)O)C1 [Compound 127b, 2-(2-((5-(1-aminoisoquinolin-7-yl)-2-(1-(ethoxycarbonyl)azetidin-3-yl)-2H-indazol-3-yl)methoxy)phenyl)acetic acid]"
11,1000 to 10000 nM,"CC1(C)Cc2ccc(-c3ccc4ccnc(N)c4c3)cc2C1Oc1cc(F)ccc1CC(=O)O (stereo not drawn) [Compound 439b, 2-(2-((6-(1-aminoisoquinolin-7-yl)-2,2-dimethyl-2,3-dihydro-1H-inden-1-yl)oxy)-4-fluorophenyl)acetic acid]"
12,< 1000 nM,"Nc1nccc2c(-c3ccc4c(c3)C(COc3ccccc3CC(=O)O)=CC43CCCC3)cccc12 [Compound 400f, 2-(2-((5′-(1-aminoisoquinolin-5-yl)spiro[cyclopentane-1,1′-inden]-3′-yl)methoxy)phenyl)acetic acid]"
13,< 1000 nM,"Cc1cccc(OC2CC3(CCOCC3)c3ccc(-c4cccc5c(N)nccc45)cc32)c1CC(=O)O (stereo not drawn) [Compound 353b, 2-(2-((5-(1-aminoisoquinolin-5-yl)-2,2′,3,3′,5′,6′-hexahydrospiro[indene-1,4′-pyran]-3-yl)oxy)-6-methylphenyl)acetic acid]"
14,< 1000 nM,"Nc1nccc2ccc(-c3ccc4c(c3)C(Oc3ccccc3CC(=O)O)CC43CCCC3)cc12 (stereo not drawn) [Compound 355b, 2-(2-((5′-(1-aminoisoquinolin-7-yl)-2′,3′-dihydrospiro[cyclopentane-1,1′-inden]-3′-yl)oxy)phenyl)acetic acid]"
15,< 1000 nM,"CC(C)N1CCN(C2CC(Oc3ccccc3CC(=O)O)c3cc(-c4cccc5c(N)nccc45)ccc32)CC1 (stereo not drawn) [Compound 456g, 2-(2-((6-(1-aminoisoquinolin-5-yl)-3-(4-isopropylpiperazin-1-yl)-2,3-dihydro-1H-inden-1-yl)oxy)phenyl)acetic acid]"
16,1000 to 10000 nM,"Nc1nccc2c(-c3ccc4c(c3)c(Cn3ccc5cccc(C(=O)O)c53)nn4C3CCOC3)cccc12 (stereo not drawn) [Compound 274e, 1-((5-(1-aminoisoquinolin-5-yl)-1-(tetrahydrofuran-3-yl)-1H-indazol-3-yl)methyl)-1H-indole-7-carboxylic acid]"
17,< 1000 nM,"Nc1nccc2ccc(-c3ccc4c(c3)c(COc3ccccc3CC(=O)O)nn4C3CCOC3)cc12 (stereo not drawn) [Compound 250b, 2-(2-((5-(1-aminoisoquinolin-7-yl)-1-(tetrahydrofuran-3-yl)-1H-indazol-3-yl)methoxy)phenyl)acetic acid]"
